US10258639B2, “Methods for treating insulin resistance and for sensitizing patients to GLP1 agonist therapy” (Research Development Foundation, priority 2014, dated 2019)

System: INS1 cells
Experiment: RNAseq of INS1 cells grown in chronic high glucose compared to controls and stimulated with FSK (Table 2)
Assay type: cell-based, rat
Method: INS-1 insulinoma cells were cultured in RPMI (corning cellgro) containing 10% fetal bovine serum (Gemini Bio Products), 100 μg/mL penicillin-streptomycin and 1 mM sodium pyruvate (corning cellgro). MIN6 cells were grown in DMEM (corning cellgro) with 10% FBS, 100 μg/mL penicillin-streptomycin and 70 uM beta-mercaptoethanol. For chronic glucose experiments, cells were maintained under low (2.8 mM) or high (20 mM) glucose for 3 days. Exendin-4 (10 nM), Forskolin (10 μM), KCl (40 mM), DMOG (1 mM) and rapamycin (50 nM) were added to cells as indicated. Cellular cAMP levels were measured using an ELISA kit (Cayman Chemical Company) according to manufacturer's instructions. Total RNAs from cells or primary islets were extracted using Trizol and cDNA was generated using the Transcriptor First Strand cDNA Synthesis kit (Roche Applied Science). cDNAs were quantified on a lightcycler 480 instrument (Roche Applied Science). Gene expression data were presented relative to the expression of housekeeping gene L32 (rat samples) and 18S (mouse and human islets). RNA-Seq libraries were prepared using the mRNA isolation protocol and the NEBNext-Ultra kits from New England Biolabs following the manufacturer's protocols. Libraries were quantitated by Qubit (Invitrogen), and run on a MiSeq instrument with paired-end 75 bp reads using v3 chemistry (Illumina) Data were analyzed by tophat2 and cuffdiff against the mouse mm10 genome build. The GEO accession number for RNAseq studies reported in the paper is GSE60158.

C=C[C@@]1(C)CC(=O)[C@]2(O)[C@@]3(C)[C@@H](O)CCC(C)(C)[C@@H]3[C@H](O)[C@H](OC(C)=O)[C@@]2(C)O1 [FSK, Forskolin]
Accsl RNAseq value (High glucose, FSK): 0.1
Acpt RNAseq value (High glucose, FSK): 0.2
Acsl4 RNAseq value (High glucose, FSK): 24.1
Agt RNAseq value (High glucose, FSK): 4.7
Ahi1 RNAseq value (High glucose, FSK): 18.6
Bhlha15 RNAseq value (High glucose, FSK): 10.9
Btg3 RNAseq value (High glucose, FSK): 63.0
Bysl RNAseq value (High glucose, FSK): 56.8
Canx RNAseq value (High glucose, FSK): 134.4
Ccni RNAseq value (High glucose, FSK): 240.1
Chd1 RNAseq value (High glucose, FSK): 24.3
Chrne RNAseq value (High glucose, FSK): 0.0
Ctf1 RNAseq value (High glucose, FSK): 0.4
Cxcl2 RNAseq value (High glucose, FSK): 1.2
Cyth3 RNAseq value (High glucose, FSK): 54.2
Dkc1 RNAseq value (High glucose, FSK): 97.6
Epha3 RNAseq value (High glucose, FSK): 0.0
Epor RNAseq value (High glucose, FSK): 0.1
Fam49a RNAseq value (High glucose, FSK): 0.1
Ficd RNAseq value (High glucose, FSK): 15.9
Fmc1 RNAseq value (High glucose, FSK): 28.5
Fn1 RNAseq value (High glucose, FSK): 320.4
Gabre RNAseq value (High glucose, FSK): 0.0
Gars RNAseq value (High glucose, FSK): 308.1
Ggt5 RNAseq value (High glucose, FSK): 0.0
Gnl3 RNAseq value (High glucose, FSK): 23.1
Gnmt RNAseq value (High glucose, FSK): 0.0
Gzmm RNAseq value (High glucose, FSK): 0.0
Hmcn1 RNAseq value (High glucose, FSK): 0.0
Hmga2 RNAseq value (High glucose, FSK): 0.0
Hnrnpa1 RNAseq value (High glucose, FSK): 35.4
Hnrpdl RNAseq value (High glucose, FSK): 165.3
Hs3st2 RNAseq value (High glucose, FSK): 1.0
Hspa4 RNAseq value (High glucose, FSK): 113.8
Hspd1 RNAseq value (High glucose, FSK): 63.0
Icam2 RNAseq value (High glucose, FSK): 0.0
Il13ra1 RNAseq value (High glucose, FSK): 0.2
Il28ra RNAseq value (High glucose, FSK): 6.8
Kcnb1 RNAseq value (High glucose, FSK): 13.1
Kcnj13 RNAseq value (High glucose, FSK): 0.8
Kdm1b RNAseq value (High glucose, FSK): 8.1
Kif9 RNAseq value (High glucose, FSK): 0.0
LOC683722 RNAseq value (High glucose, FSK): 7.9
LOC686295 RNAseq value (High glucose, FSK): 3.8
LOC689959 RNAseq value (High glucose, FSK): 7.2
Lrfn5 RNAseq value (High glucose, FSK): 0.2
Map3k4 RNAseq value (High glucose, FSK): 22.7
Mef2d RNAseq value (High glucose, FSK): 175.0
Megf10 RNAseq value (High glucose, FSK): 0.2
Msn RNAseq value (High glucose, FSK): 3.2
Myof RNAseq value (High glucose, FSK): 0.1
Nckap1l RNAseq value (High glucose, FSK): 1.8
Nkx2-2 RNAseq value (High glucose, FSK): 93.4
Nolc1 RNAseq value (High glucose, FSK): 192.8
Notch4 RNAseq value (High glucose, FSK): 0.6
Ormdl3 RNAseq value (High glucose, FSK): 128.5
Otop3 RNAseq value (High glucose, FSK): 0.0
Pabpc6 RNAseq value (High glucose, FSK): 0.1
Pde3b RNAseq value (High glucose, FSK): 45.5
Pde4dip RNAseq value (High glucose, FSK): 29.3
Pdrg1 RNAseq value (High glucose, FSK): 28.6
Plcb2 RNAseq value (High glucose, FSK): 0.0
RGD1309079 RNAseq value (High glucose, FSK): 0.8
RGD1311084 RNAseq value (High glucose, FSK): 0.0
Rab3gap2 RNAseq value (High glucose, FSK): 29.1
Rab11fip1 RNAseq value (High glucose, FSK): 8.3
Rap2a RNAseq value (High glucose, FSK): 12.9
Rho RNAseq value (High glucose, FSK): 0.1
Rpl7a RNAseq value (High glucose, FSK): 0.7
Rpl17 RNAseq value (High glucose, FSK): 126.3
Rrs1 RNAseq value (High glucose, FSK): 71.4
Sgce RNAseq value (High glucose, FSK): 0.3
Smad1 RNAseq value (High glucose, FSK): 29.8
Smad3 RNAseq value (High glucose, FSK): 1.6
Snapc1 RNAseq value (High glucose, FSK): 2.7
Sncaip RNAseq value (High glucose, FSK): 4.9
Spon2 RNAseq value (High glucose, FSK): 0.3
Srp54 RNAseq value (High glucose, FSK): 27.8
Stard8 RNAseq value (High glucose, FSK): 0.4
Syp RNAseq value (High glucose, FSK): 447.7
T2 RNAseq value (High glucose, FSK): 0.1
Taf1a RNAseq value (High glucose, FSK): 6.7
Tex38 RNAseq value (High glucose, FSK): 0.1
Tmem114 RNAseq value (High glucose, FSK): 0.0
Tomm20 RNAseq value (High glucose, FSK): 70.0
Tpp2 RNAseq value (High glucose, FSK): 12.3
Twistnb RNAseq value (High glucose, FSK): 9.1
Usp9x RNAseq value (High glucose, FSK): 40.0
Vps37b RNAseq value (High glucose, FSK): 32.2
Zfp830 RNAseq value (High glucose, FSK): 17.0
Zfp385d RNAseq value (High glucose, FSK): 0.1
Accsl Fold (High glucose, FSK/control): 0.9
Acpt Fold (High glucose, FSK/control): 3.0
Acsl4 Fold (High glucose, FSK/control): 1.6
Agt Fold (High glucose, FSK/control): 1.8
Ahi1 Fold (High glucose, FSK/control): 1.5
Bhlha15 Fold (High glucose, FSK/control): 1.1
Btg3 Fold (High glucose, FSK/control): 1.2
Bysl Fold (High glucose, FSK/control): 1.5
Canx Fold (High glucose, FSK/control): 1.1
Ccni Fold (High glucose, FSK/control): 1.5
Chd1 Fold (High glucose, FSK/control): 1.4
Chrne Fold (High glucose, FSK/control): 0.0
Ctf1 Fold (High glucose, FSK/control): 1.8
Cxcl2 Fold (High glucose, FSK/control): 3.2
Cyth3 Fold (High glucose, FSK/control): 3.2
Dkc1 Fold (High glucose, FSK/control): 1.2
Epha3 Fold (High glucose, FSK/control): 0.5
Epor Fold (High glucose, FSK/control): 1.0
Fam49a Fold (High glucose, FSK/control): 1.0
Ficd Fold (High glucose, FSK/control): 1.2
Fmc1 Fold (High glucose, FSK/control): 1.1
Fn1 Fold (High glucose, FSK/control): 2.7
Gars Fold (High glucose, FSK/control): 1.8
Gnl3 Fold (High glucose, FSK/control): 1.3
Gzmm Fold (High glucose, FSK/control): 0.0
Hmcn1 Fold (High glucose, FSK/control): 0.3
Hmga2 Fold (High glucose, FSK/control): 0.0
Hnrnpa1 Fold (High glucose, FSK/control): 1.4
Hnrpdl Fold (High glucose, FSK/control): 1.5
Hs3st2 Fold (High glucose, FSK/control): 2.6
Hspa4 Fold (High glucose, FSK/control): 1.2
Hspd1 Fold (High glucose, FSK/control): 1.0
Icam2 Fold (High glucose, FSK/control): 0.0
Il13ra1 Fold (High glucose, FSK/control): 1.0
Il28ra Fold (High glucose, FSK/control): 1.7
Kcnb1 Fold (High glucose, FSK/control): 0.8
Kcnj13 Fold (High glucose, FSK/control): 3.0
Kdm1b Fold (High glucose, FSK/control): 1.4
Kif9 Fold (High glucose, FSK/control): 0.7
LOC683722 Fold (High glucose, FSK/control): 1.8
LOC686295 Fold (High glucose, FSK/control): 1.3
LOC689959 Fold (High glucose, FSK/control): 0.9
Lrfn5 Fold (High glucose, FSK/control): 1.2
Map3k4 Fold (High glucose, FSK/control): 1.3
Mef2d Fold (High glucose, FSK/control): 1.8
Msn Fold (High glucose, FSK/control): 1.0
Myof Fold (High glucose, FSK/control): 0.6
Nckap1l Fold (High glucose, FSK/control): 0.9
Nkx2-2 Fold (High glucose, FSK/control): 2.2
Nolc1 Fold (High glucose, FSK/control): 1.2
Notch4 Fold (High glucose, FSK/control): 1.7
Ormdl3 Fold (High glucose, FSK/control): 1.1
Otop3 Fold (High glucose, FSK/control): 0.0
Pabpc6 Fold (High glucose, FSK/control): 4.4
Pde3b Fold (High glucose, FSK/control): 1.9
Pde4dip Fold (High glucose, FSK/control): 1.4
Pdrg1 Fold (High glucose, FSK/control): 1.0
Plcb2 Fold (High glucose, FSK/control): 1.0
RGD1309079 Fold (High glucose, FSK/control): 1.3
Rab3gap2 Fold (High glucose, FSK/control): 1.3
Rab11fip1 Fold (High glucose, FSK/control): 1.9
Rap2a Fold (High glucose, FSK/control): 2.2
Rho Fold (High glucose, FSK/control): 0.7
Rpl7a Fold (High glucose, FSK/control): 2.5
Rpl17 Fold (High glucose, FSK/control): 1.0
Rrs1 Fold (High glucose, FSK/control): 1.5
Sgce Fold (High glucose, FSK/control): 0.8
Smad1 Fold (High glucose, FSK/control): 1.4
Smad3 Fold (High glucose, FSK/control): 0.7
Snapc1 Fold (High glucose, FSK/control): 1.2
Sncaip Fold (High glucose, FSK/control): 1.4
Spon2 Fold (High glucose, FSK/control): 0.7
Srp54 Fold (High glucose, FSK/control): 1.1
Stard8 Fold (High glucose, FSK/control): 2.3
Syp Fold (High glucose, FSK/control): 1.5
T2 Fold (High glucose, FSK/control): 0.7
Taf1a Fold (High glucose, FSK/control): 1.3
Tex38 Fold (High glucose, FSK/control): 0.3
Tomm20 Fold (High glucose, FSK/control): 1.4
Tpp2 Fold (High glucose, FSK/control): 1.3
Twistnb Fold (High glucose, FSK/control): 1.5
Usp9x Fold (High glucose, FSK/control): 1.5
Vps37b Fold (High glucose, FSK/control): 1.3
Zfp830 Fold (High glucose, FSK/control): 1.1
Zfp385d Fold (High glucose, FSK/control): 0.2
Accsl RNAseq value (Low glucose, FSK): 0.3
Acpt RNAseq value (Low glucose, FSK): 0.3
Acsl4 RNAseq value (Low glucose, FSK): 28.6
